For the assay, the target named is T1, DltA enzyme (Streptococcus agalactiae serotype III, UniProt Q8VM67).
T1 construct: His-tag (from pET100 vector) (N); made in house; host or cells: E. coli BL21 (DE3) Star
T1 sequence (Q8VM67 1-511): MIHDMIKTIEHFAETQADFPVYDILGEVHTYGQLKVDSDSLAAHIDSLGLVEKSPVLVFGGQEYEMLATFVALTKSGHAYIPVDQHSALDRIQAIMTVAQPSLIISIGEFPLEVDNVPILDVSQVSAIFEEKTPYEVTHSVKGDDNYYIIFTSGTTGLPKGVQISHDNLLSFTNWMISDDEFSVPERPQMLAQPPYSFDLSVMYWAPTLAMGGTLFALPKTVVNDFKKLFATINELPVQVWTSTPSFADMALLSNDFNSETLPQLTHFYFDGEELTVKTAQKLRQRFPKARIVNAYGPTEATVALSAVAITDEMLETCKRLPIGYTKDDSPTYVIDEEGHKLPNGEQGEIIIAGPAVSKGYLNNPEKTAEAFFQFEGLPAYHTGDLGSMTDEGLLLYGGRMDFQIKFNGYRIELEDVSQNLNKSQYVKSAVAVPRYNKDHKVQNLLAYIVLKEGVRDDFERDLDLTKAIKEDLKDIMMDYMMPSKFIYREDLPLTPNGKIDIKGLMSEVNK
The experiment in a line: DltA HTS assays (luminescent / fluorescent), inhibition of DltA enzymatic activity in vitro. In kind it is biochemical, S. agalactiae. The conditions noted are these: Table 1, DltA inhibition, HTS assays of method 1. The text has this: The compounds effect on DltA enzyme has been based on the measure of the inhibition of DltA activity in vitro.
To this end, a recombinant protein Dlta was expressed and purified after cloning of the gene of S. agalatiae as described below:
Methods 1: DltA HTS Assays
The assay described below makes use of dithiothreitol (DTT) instead of DltC as reactive thiol in the catalyzed reaction. In fact, the inventors have shown that DTT, but also Coenzyme A and N-Acetylcysteamine are all thiols able to replace efficiently DltC. In addition, contrary to the prior art, radioactivity is not used: all the assays are based either on luminescent ATP detection, or on fluorescent AMP detection. They are easily amenable to miniaturized formats and fast readouts as required by HTS.
The assay buffer “AB” contains 50 mM Hepes pH8.0, 10 mM MgCl2, 50 mM KCl, 0.012% Triton-X100. The following components are added in a white polystyrene Costar plate up to a final volume of 30 μL: 3 μL DMSO, or inhibitor dissolved in DMSO and 27 μL DltA enzyme and DTT in AB. After 30 min of pre-incubation at room temperature, 30 μL of Substrates mix in AB are added in each well to a final volume of 60 μL. This reaction mixture is then composed of 10 nM DltA (produced in house from S. agalactiae), 0.5 mM D-Alanine (Sigma), 0.5 μM ATP (Sigma) and 1 mM DTT (Biochemika) in assay buffer. After 90 min of incubation at room temperature, 30 μL of the revelation mix are added to a final volume of 90 μL, including the following constituents at the respective final concentrations: 2 nM luciferase (Sigma), 30 μM D-luciferin (Sigma), 100 μM N-acetylcysteamine (Aldrich). Luminescence intensity is immediately measured on an Analyst-HT (Molecular Devices) and converted into inhibition percentages. For IC50 (Inhibitory Concentration 50%) determinations, the inhibitor is added at 6 to 10 different concentrations, and the related inhibitions are fitted to a classical langmuir equilibrium model using XLFIT (IDBS).
The assay buffer “AB” contains 50 mM Hepes pH8.0, 10 mM MgCl2, 50 mM KCl, 0.012% Triton-X100. The following components are added in a black polystyrene Costar plate up to a final volume of 50 μL: 5 μL DMSO, or inhibitor dissolved in DMSO and 45 μL DltA enzyme and DTT in AB. After 30 min of pre-incubation at room temperature, 50 μL of Substrates-revelation mix in AB are added in each well to a final volume of 100 μL. This reaction mixture is then composed of 5 nM DltA (produced in house from S. agalactiae), 0.5 mM D-Alanine (Sigma), 10 μM ATP (Sigma), 1 mM DTT (Biochemika), 10 nM Adenylate kinase (produced in house), 5 u/mL Pyruvate Kinase (Sigma), 50 μM phosphoenolpyruvate (Sigma), 5 u/mL Lactate deshydrogenase (Sigma) and 3 μM NADH (Sigma) in assay buffer. Fluorescence intensity of NADH (λex=360 nm, λem=520 nm) is immediately measured kinetically by a Fluostar Optima (BMG). Inhibition percentages are derived from fitted initial velocities. For IC50 determinations, the inhibitor is added at 6 to 10 different concentrations, and the related inhibitions are fitted to a classical langmuir equilibrium model using XLFIT (IDBS). FIG. 2 represents the data obtained using this method.
The capacity of compounds to inhibit DltA enzymatic activity was assessed using the DltA HTS assays described in method 1.

Counter-ions that a name gives are not always drawn. Like-named read-outs stand apart in the source and are kept apart here.

The term IC50 denotes the point on the concentration scale where inhibition reaches its midpoint. Regarding `OCCCNc1nc2cc(C(F)(F)F)ccc2n2ccnc12` [Example 1, 3-{[7-(trifluoromethyl)imidazo[1,2-a]quinoxalin-4-yl]amino}propan-1-ol], the 50% inhibitory concentration (IC50) (read-out: IC50) stood at 3.2 µM.
Still for that read-out and setting: as for `OCCCNc1nc2cc(C(F)(F)F)ccc2n2c(Br)cnc12` [Example 2, 3-{[1-bromo-7-(trifluoromethyl)imidazo[1,2-a]quinoxalin-4 yl]amino}propan-1-ol], the figure is 2.5 µM; as for `OCCCNc1nc2cc(C(F)(F)F)ccc2n2c(I)cnc12` [Example 3, 3-{[1-iodo-7-(trifluoromethyl)imidazo[1,2-a]quinoxalin-4-yl]amino}propan-1-ol], 0.62 µM; as for `OCCCNc1nc2cc(Br)ccc2n2ccnc12` [Example 4, 3-(7-bromo-imidazo[1,2-a]quinoxalin-4-ylamino)-propan-1-ol], 6.6 µM.
On the same count and under the same terms, with `OCCCNc1nc2cc(-c3ccccc3C(F)(F)F)ccc2n2ccnc12` [Example 5, 3-({7-[2-(trifluoromethyl)phenyl]imidazo[1,2-a]quinoxalin-4-yl}amino)propan-1-ol] the figure was 0.56 µM; with `CCSc1ccc2c(c1)nc(NCCCO)c1nccn12` [Example 6], 6.5 µM.
Same read-out and setting: with `OCCCNc1nc2cc(OC(F)(F)F)ccc2n2ccnc12` [Example 7, 3-{[7-(trifluoromethoxy)imidazo[1,2-a]quinoxalin-4-yl]amino}propan-1-ol] the figure was 2.2 µM; with `CC(=O)Nc1cccc(-c2cnc3c(NCCCO)nc4cc(C(F)(F)F)ccc4n23)c1` [Example 8, N-{3-[4-(3-Hydroxy-propylamino)-7-trifluoromethyl-imidazo[1,2-a]quinoxalin-1-yl]-phenyl}-acetamide], 0.12 µM.
Take `NS(=O)(=O)c1cccc(-c2cnc3c(NCCCO)nc4cc(C(F)(F)F)ccc4n23)c1` [Example 9, 3-{4-[(3-hydroxypropyl)amino]-7-(trifluoromethyl)imidazo[1,2-a]quinoxalin-1-yl}benzenesulfonamide]: the IC50 (read-out: IC50) was 0.69 µM.
Take `COc1ccc(-c2cnc3c(NCCCO)nc4cc(C(F)(F)F)ccc4n23)cc1` [Example 10, 3-{[1-(4-methoxyphenyl)-7-(trifluoromethyl)imidazo[1,2-a]quinoxalin-4-yl]amino}propan-1-ol]: the IC50 (read-out: IC50) came out at 0.23 µM.
On to `OCCCNc1nc2cc(C(F)(F)F)ccc2n2c(-c3ccccc3)cnc12` [Example 11, 3-{[1-phenyl-7-(trifluoromethyl)imidazo[1,2-a]quinoxalin-4-yl]amino}propan-1-ol], for which, under “read-out: IC50”, the IC50 is 0.73 µM.
The same measure, in the same setting: as for `CS(=O)(=O)Nc1ccc(-c2cnc3c(NCCCO)nc4cc(C(F)(F)F)ccc4n23)cc1` [Example 12, N-{4-[4-(3-Hydroxy-propylamino)-7-trifluoromethyl-imidazo[1,2-a]quinoxalin-1-yl]-phenyl}-methanesulfonamide], the figure is 0.087 µM; as for `COc1ccc(-c2cnc3c(NCCCO)nc4cc(C(F)(F)F)ccc4n23)cn1` [Example 13, 3-{[1-(6-methoxypyridin-3-yl)-7-(trifluoromethyl)imidazo[1,2-a]quinoxalin-4-yl]amino}propan-1-ol], 0.48 µM.
The same measure, in the same setting: as for `OCCCNc1nc2cc(C(F)(F)F)ccc2n2c(-c3ccc(N4CCOCC4)cc3)cnc12` [Example 14, 3-{[1-(4-N-morpholinophenyl)-7-(trifluoromethyl)imidazo[1,2-a]quinoxalin-4-yl]amino}propan-1-ol], the figure is 0.46 µM; as for `CNC(=O)c1ccc(-c2cnc3c(NCCCO)nc4cc(C(F)(F)F)ccc4n23)cc1` [Example 15, 4-{4-[(3-hydroxypropyl)amino]-7-(trifluoromethyl)imidazo[1,2-a]quinoxalin-1-yl}-N-methylbenzamide], 0.2 µM; as for `OCCCNc1nc2cc(C(F)(F)F)ccc2n2c(-c3cn[nH]c3)cnc12` [Example 17, 3-{[1-(1H-pyrazol-4-yl)-7-(trifluoromethyl)imidazo[1,2-a]quinoxalin-4-yl]amino}propan-1-ol], 0.51 µM.
Same read-out and setting: as for `NCc1ccc(-c2cnc3c(NCCCO)nc4cc(C(F)(F)F)ccc4n23)cc1` [Example 18, 3-({1-[4-(aminomethyl)phenyl]-7-(trifluoromethyl)imidazo[1,2-a]quinoxalin-4-yl}amino)propan-1-ol], the figure is 0.24 µM; as for `Nc1ncc(-c2cnc3c(NCCCO)nc4cc(C(F)(F)F)ccc4n23)cn1` [Example 20, 3-{[1-(2-aminopyrimidin-5-yl)-7-(trifluoromethyl)imidazo[1,2-a]quinoxalin-4-yl]amino}propan-1-ol], 0.86 µM; as for `COc1cc(-c2cnc3c(NCCCO)nc4cc(C(F)(F)F)ccc4n23)ccc1N` [Example 21], 0.27 µM.
For the compound `C=Cc1cnc2c(NCCCO)nc3cc(C(F)(F)F)ccc3n12` [Example 22, 3-{[7-(trifluoromethyl)-1-vinylimidazo[1,2-a]quinoxalin-4-yl]amino}propan-1-ol], the IC50 (read-out: IC50) turned out to be 1 µM.
Take `CS(=O)(=O)Nc1ccc(-c2cnc3c(NCCCO)nc4cc(C(F)(F)F)ccc4n23)cc1` [Example 23, N-{4-[4-(3-Hydroxy-propylamino)-7-trifluoromethyl-imidazo[1,2-a]quinoxalin-1-yl]phenyl}-methanesulfonamide Sodium salt]: it took 0.21 µM to reach half-maximal inhibition (IC50 (μM)) (IC50).
As for `COc1ccc(-n2cnc3c(NCCCO)nc4cc(C(F)(F)F)ccc4c32)cc1` [Example 24, 3-[1-(4-Methoxy-phenyl)-7-trifluoromethyl-1H-imidazo[4,5-c]quinolin-4-ylamino]-propan-1-ol], where the note is “read-out: IC50”, the IC50 amounted to 3.9 µM.
Same read-out and setting: as for `Cn1cnc2c(NCCCO)nc3cc(C(F)(F)F)ccc3c21` [Example 25, 3-{[1-methyl-7-(trifluoromethyl)-1H-imidazo[4,5-c]quinolin-4-yl]amino}propan-1-ol], the figure is 17 µM; as for `OCCCNc1nc2cc(C(F)(F)F)ccc2c2c1ncn2[C@H]1CC[C@H](O)CC1` [Example 26, 4-[4-(3-hydroxy-propylamino)-7-trifluoromethyl-imidazo[4,5-c]quinolin-1-yl]-cyclohexanol], 20 µM.
The same measure, in the same setting: as for `OCCCNc1nc2cc(C(F)(F)F)ccc2n2c(C3=CCNCC3)cnc12` [Example 27, 3-[1-(1,2,3,6-tetrahydro-pyridin-4-yl)-7-trifluoromethyl-imidazo[1,2-a]quinoxalin-4-ylamino]-propan-1-ol], the figure is 2.6 µM.
Regarding `CC(=O)N1CC=C(c2cnc3c(NCCCO)nc4cc(C(F)(F)F)ccc4n23)CC1` [Example 28, 1-{4-[4-(3-hydroxy-propylamino)-7-trifluoromethyl-imidazo[1,2-a]quinoxalin-1-yl]-3,6-dihydro-2H-pyridin-1-yl}-ethanone], the IC50 (read-out: IC50) was 0.65 µM.
Turning to `CS(=O)(=O)N1CC=C(c2cnc3c(NCCCO)nc4cc(C(F)(F)F)ccc4n23)CC1` [Example 29, 3-[1-(1-methanesulfonyl-1,2,3,6-tetrahydro-pyridin-4-yl)-7-trifluoromethyl-imidazo[1,2-a]quinoxalin-4-ylamino]-propan-ol], the IC50 (read-out: IC50) came out at 0.41 µM.
